Data reported in article doi:10.1101/2025.03.04.641560v1 (biorxiv, 2025).
Where two headings read alike, the source gives them in different places.

What was measured:
Td2F2 [1] = test: fluorescence plate reader, Michaelis-Menten fit; assay type: biochemical, uncultured bacterium; settings: 10 mM HEPES pH 7.4
Td2F2 [2] = settings: 10 mM HEPES pH 7.4; Mutant A
β-galactosidase (LacZ) = β-galactosidase (LacZ) (Escherichia coli, UniProt P00722); test: fluorescence plate reader, Michaelis-Menten fit; assay type: biochemical; settings: 10 mM HEPES pH 7.4
β-galactosidase (LacZ), sequence (P00722 2-1024): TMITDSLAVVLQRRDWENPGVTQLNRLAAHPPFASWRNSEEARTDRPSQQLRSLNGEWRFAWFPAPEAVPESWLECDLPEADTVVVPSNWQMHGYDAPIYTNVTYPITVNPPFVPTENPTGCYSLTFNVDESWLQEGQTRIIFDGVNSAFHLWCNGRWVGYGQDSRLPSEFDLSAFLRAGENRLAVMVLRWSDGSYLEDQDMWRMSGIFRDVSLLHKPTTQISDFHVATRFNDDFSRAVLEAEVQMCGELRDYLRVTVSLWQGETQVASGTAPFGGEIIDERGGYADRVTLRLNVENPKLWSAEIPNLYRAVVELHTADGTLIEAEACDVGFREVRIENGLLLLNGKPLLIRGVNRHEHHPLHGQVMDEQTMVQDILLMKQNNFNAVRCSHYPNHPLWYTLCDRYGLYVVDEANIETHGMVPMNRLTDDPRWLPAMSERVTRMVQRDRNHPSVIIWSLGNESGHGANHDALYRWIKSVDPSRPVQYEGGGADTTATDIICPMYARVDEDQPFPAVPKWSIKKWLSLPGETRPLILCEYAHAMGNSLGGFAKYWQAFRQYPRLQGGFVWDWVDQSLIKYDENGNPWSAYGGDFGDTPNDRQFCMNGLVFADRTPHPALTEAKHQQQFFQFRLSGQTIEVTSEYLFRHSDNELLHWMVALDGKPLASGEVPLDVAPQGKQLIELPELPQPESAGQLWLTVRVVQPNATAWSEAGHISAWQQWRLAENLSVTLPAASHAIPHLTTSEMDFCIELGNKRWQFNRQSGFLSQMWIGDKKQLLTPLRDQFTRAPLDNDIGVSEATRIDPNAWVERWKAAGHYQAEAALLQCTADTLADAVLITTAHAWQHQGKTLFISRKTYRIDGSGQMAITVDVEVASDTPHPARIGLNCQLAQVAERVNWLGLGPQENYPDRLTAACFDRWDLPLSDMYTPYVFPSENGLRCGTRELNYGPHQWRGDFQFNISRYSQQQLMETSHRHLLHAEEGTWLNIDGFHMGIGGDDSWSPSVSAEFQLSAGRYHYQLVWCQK

Km (β-galactosidase (LacZ)) [µM]	Compound	Km (Td2F2 [1]) [µM]	Km (Td2F2 [2]) [µM]
–	C[C@H]1O[C@@H](Oc2ccc3c(c2)Oc2cc(NCC(F)(F)F)ccc2C32OCc3ccccc32)[C@H](O)[C@@H](O)[C@H]1O (stereo partly drawn) [HMRef-β-D-Fuc, HMRef-β-D-fucose]	190	3.7
73	OC[C@H]1O[C@@H](Oc2ccc3c(c2)Oc2cc(NCC(F)(F)F)ccc2C32OCc3ccccc32)[C@H](O)[C@@H](O)[C@H]1O (stereo partly drawn) [HMRef-β-D-Gal]	–	–
